The results in this text go back to patent US20040220270A1, “Methods and composition of treating glaucoma by modulating tyrosinase/L-DOPA pathway” (The Jackson Laboratory, priority 2003, published 2004).

Entries after “also recorded” stand apart in the source; their conditions may differ.

The assay relates to Cyp1b1^−/− Tyr^c−2J/c−2J (albino) double mutants. The assay can be described thus: L-DOPA supplementation via drinking water throughout ocular development; histologic and electron microscopic grading of angle dysgenesis. As to conditions: for developmental abnormalities in the iridocorneal angle / severe angle dysgenesis (histology): L-DOPA 1 mg/ml in drinking water from gestation until harvest at approximately 4 weeks. The format is in vivo, mice. From the text:
Applicant hypothesized that tyrosinase might affect angle development through modulation of L-DOPA levels. Tyrosinase is a monooxygenase that converts tyrosine to L-DOPA and L-DOPA to dopaquinone. L-DOPA affects development and is the precursor of catecholamines, which are important developmental regulators (15-17). To investigate whether L-DOPA is a critical molecule in angle development, Applicant administered water containing L-DOPA or standard drinking water to Cyp1b1^-/- Tyr^c-2J/c-2J (albino) double mutants throughout ocular development [their mothers received this water throughout the period of in utero development (12)]. […] Despite the profound rescue in L-DOPA treated albino Cyp1b1^-/- mice, mild abnormalities of similar severity to those observed in pigmented Cyp1b1^-/- mice remained. […] These include genes that affect L-DOPA levels, affect the metabolism of L-DOPA to other developmentally important molecules or affect the signaling of these molecules in developmental/physiologic pathways. L-DOPA treatment-L-DOPA (dihydroxyphenylalanine, 15,431-8, Aldrich Chemical Company, Inc., Milwaukee, Wis.) was supplied to the animals via their drinking water at a concentration of 1 mg/ml (5, 6). L-DOPA was dissolved into acidic water (pH of 3) to avoid oxidation. Animals were either on L-DOPA for their entire gestation or started on L-DOPA at embryonic day E5.5 (prior to eye formation). Eyes were harvested at approximately 4 weeks of age and L-DOPA treatment was continued until the time of harvest. Freshly made L-DOPA water was supplied every three days. Histologic and electron microscopic analyses-Applicant fixed and processed eyes for plastic sectioning and electron microscopy as previously reported (1, 9). All tissues were harvested from mice at ages after angle formation. For light microscopy, eyes were […] sectioned and up to 56 sections were collected from each of 3 different ocular regions for all eyes. […] Collected regions included nasal lens periphery, central lens, and a region halfway between the lens center and the peripheral lens. Sections were stained with hematoxylin and eosin. Due to the potential for artifact in the delicate tissues analyzed abnormalities had to be present in multiple sections from the same region. Nine to twelve eyes were analyzed for each genotype on each genetic background. Applicant devised a grading scheme to allow comparison between different eyes. Applicant separately assessed the severity of defects affecting Schlemm's canal (SC), trabecular meshwork (TM) and creating synechiae. For each phenotype, Applicant graded 6 similarly spaced sections for each ocular region. Applicant graded the severity of abnormalities in both angles of a section. Thus, Applicant graded 36 angles (6 sections×2 angles×3 regions) from different ocular regions for each eye. Applicant designated a grade of 0, 1, 2, 3, or 4 (increasing in severity from 0 to 4, see below) to each phenotype for each angle. For an eye, the total grade could be any value between 0 and 144 (36 angles×4). […] To assess the difference in the severity of angle dysgenesis between the albino and pigmented eyes, Applicant graded approximately 10 eyes from mice of each Cyp1b1 and Foxc1 genotype. Due to the continuous nature of the grade, Applicant present the data as mean± SEM and compared genotypes using two tailed student t-tests. Applicant checked the consistency of the grading method by assessing 8 random eyes on a second occasion without knowledge of the initial grade. […]

For the compound `N[C@@H](Cc1ccc(O)c(O)c1)C(=O)O` [L-DOPA, 3,4-dihydroxyphenylalanine], the “developmental abnormalities in the iridocorneal angle / severe angle dysgenesis (histology)” value is, setting by setting: (Cyp1b1^−/− Tyr^c−2J/c−2J mice, B6 background, versus untreated) “alleviated; also recorded: prevent the severe angle dysgenesis”; (Cyp1b1^−/− Tyr^c−2J/c−2J mice, B6 background, versus untreated, listed as LDOPA) “substantially prevented developmental abnormalities”. Moreover, the “ultrastructure of the trabecular meshwork (electron micrographs)” value (Cyp1b1^−/− Tyr^c−2J/c−2J mice, B6 background, L-DOPA 1 mg/ml in drinking water, versus untreated) is reported as “rescues the ultrastructure of the trabecular meshwork”. Also, for the setting “Cyp1b1^−/− Tyr^c−2J/c−2J mice, L-DOPA 1 mg/ml in drinking water, grade 0-144 per eye, p<0.001 for all assessed phenotypes versus untreated”, the “mean severity grades of developmental dysgenesis (Schlemm's canal, trabecular meshwork, synechiae)” value is given as “can be alleviated”. Moreover, under “L-DOPA treated albino Cyp1b1^−/− mice, compared with pigmented Cyp1b1^−/− mice”, the “abnormalities remaining after L-DOPA treatment” value is on record as “mild abnormalities of similar severity to those observed in pigmented Cyp1b1^−/− mice remained”.
